Results: the supplement of paper PMC9663587

Legend:
[1] = compound: CC(=O)c1c(C)c2cnc(Nc3ccc(N4CCNCC4)cn3)nc2n(C2CCCC2)c1=O; test: increase in dead-cell fraction, 72 h; higher = more death;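 also: breast cancer cell lines in 384-well plates, stained with Hoechst plus LIVE/DEAD far red dye and imaged, cells above an LDR intensity threshold counted dead, Hoechst-negative corpses included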
[2] = compound: CCN1CCN(Cc2ccc(Nc3ncc(F)c(-c4cc(F)c5nc(C)n(C(C)C)c5c4)n3)nc2)CC1; test: as above
[3] = compound: CC(=O)c1c(C)c2cnc(Nc3ccc(N4CCNCC4)cn3)nc2n(C2CCCC2)c1=O; test: GR value, 72 h; higher = faster growth (1 = untreated, <0 = killing);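 also: breast cancer and non-malignant breast epithelial lines, nine half-log doses, viable cells counted by Hoechst and LIVE/DEAD dye imaging versus time-zero plates and DMSO controls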
[4] = compound: CCN1CCN(Cc2ccc(Nc3ncc(F)c(-c4cc(F)c5nc(C)n(C(C)C)c5c4)n3)nc2)CC1; test: as above
[5] = compound: CCc1cnn2c(NCc3ccc[n+]([O-])c3)cc(N3CCCC[C@H]3CCO)nc12; test: as above
Neratinib/HKI272 = compound: CCOc1cc2ncc(C#N)c(Nc3ccc(OCc4ccccn4)c(Cl)c3)c2cc1NC(=O)/C=C/CN(C)C [Neratinib/HKI272]; test: as above

## HCC1428
[1]; 0.0003162 µM
  increase in dead-cell fraction: 0.005
[1]; 0.001 µM
  increase in dead-cell fraction: -0.0004
[1]; 0.003162 µM
  increase in dead-cell fraction: -0.0052
[1]; 0.01 µM
  increase in dead-cell fraction: 0.0068
[1]; 0.03162 µM
  increase in dead-cell fraction: 0.0017
[1]; 0.1 µM
  increase in dead-cell fraction: 0.0007
[1]; 0.3162 µM
  increase in dead-cell fraction: 0.0117
[1]; 1 µM
  increase in dead-cell fraction: 0.0083
[1]; 3.162 µM
  increase in dead-cell fraction: 0.0097
[2]; 0.001 µM
  increase in dead-cell fraction: -0.0074
[2]; 0.003162 µM
  increase in dead-cell fraction: 0.0007
[2]; 0.01 µM
  increase in dead-cell fraction: 0.0093
[2]; 0.03162 µM
  increase in dead-cell fraction: 0.0115
[2]; 0.1 µM
  increase in dead-cell fraction: 0.0154
[2]; 0.3162 µM
  increase in dead-cell fraction: 0.0035
[2]; 1 µM
  increase in dead-cell fraction: 0.0027
[2]; 3.162 µM
  increase in dead-cell fraction: 0.0224
[2]; 10 µM
  increase in dead-cell fraction: 0.0617
[3]; 0.0003162 µM
  GR value: 1.05 GR
[3]; 0.001 µM
  GR value: 1.07 GR
[3]; 0.003162 µM
  GR value: 1.14 GR
[3]; 0.01 µM
  GR value: 0.874 GR
[3]; 0.03162 µM
  GR value: 0.729 GR
[3]; 0.1 µM
  GR value: 0.434 GR
[3]; 0.3162 µM
  GR value: 0.313 GR
[3]; 1 µM
  GR value: 0.247 GR
[3]; 3.162 µM
  GR value: 0.268 GR
[4]; 0.001 µM
  GR value: 0.945 GR
[4]; 0.003162 µM
  GR value: 0.654 GR
[4]; 0.01 µM
  GR value: 0.515 GR
[4]; 0.03162 µM
  GR value: 0.31 GR
[4]; 0.1 µM
  GR value: 0.228 GR
[4]; 0.3162 µM
  GR value: 0.25 GR
[4]; 1 µM
  GR value: 0.234 GR
[4]; 3.162 µM
  GR value: 0.181 GR
[4]; 10 µM
  GR value: 0.0475 GR
[5]; 0.0001 µM
  GR value: 1.11 GR
[5]; 0.0003162 µM
  GR value: 1.09 GR
[5]; 0.001 µM
  GR value: 0.975 GR
[5]; 0.003162 µM
  GR value: 0.984 GR
[5]; 0.01 µM
  GR value: 0.871 GR
[5]; 0.03162 µM
  GR value: -0.205 GR
[5]; 0.1 µM
  GR value: -0.538 GR
[5]; 0.3162 µM
  GR value: -0.619 GR
[5]; 1 µM
  GR value: -0.67 GR
Neratinib/HKI272; 0.0003162 µM
  GR value: 1.08 GR
Neratinib/HKI272; 0.001 µM
  GR value: 1.03 GR
Neratinib/HKI272; 0.003162 µM
  GR value: 1.05 GR
Neratinib/HKI272; 0.01 µM
  GR value: 0.992 GR
Neratinib/HKI272; 0.03162 µM
  GR value: 1.1 GR
Neratinib/HKI272; 0.1 µM
  GR value: 0.964 GR
Neratinib/HKI272; 0.3162 µM
  GR value: 0.922 GR
Neratinib/HKI272; 1 µM
  GR value: 0.656 GR
Neratinib/HKI272; 3.162 µM
  GR value: -0.0337 GR
